These results are taken from ChEMBL document CHEMBL1128236, “Highly kappa receptor-selective dynorphin A analogues with modifications in position 3 of dynorphin A(1-11)-NH2” (J Med Chem, 1995).

SMILES strings stand for the structures.

The species entered for test [1] is Cavia porcellus. The test can be described thus: Shift in the activity was determined; ns= no significant shift observed with 1000 nM CTAP used as a mu antagonist. In kind it is functional.
The species named for test [2] is Cavia porcellus. The test can be described thus: Ability to inhibit the electrically evoked contraction of the guinea pig ileum(GPI) of the Compound was determined. In kind it is functional.
Test [3] addresses Kappa-type opioid receptor (Cavia porcellus, UniProt P41144). The test can be described thus: Binding affinity towards Opioid receptor kappa 1 in guinea pig brain using [3H]U-69593 as radioligand.
The next test addresses Mu-type opioid receptor (Cavia porcellus, UniProt P97266). The test can be described thus: Binding affinity towards Opioid receptor mu 1 in guinea pig brain using [3H]DAMGO as radioligand.
The nature of test [4]: Compound was evaluated for its receptor binding affinity at [3H]cyclo[D-pen2,p-cl-Phe4,D-Pen5](delta receptor) to opioid receptor in guinea pig brain.

Sequence of Mu-type opioid receptor (P97266 whole entry): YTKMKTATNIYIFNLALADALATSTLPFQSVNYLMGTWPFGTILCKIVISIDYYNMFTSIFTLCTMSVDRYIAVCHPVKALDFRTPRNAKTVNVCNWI
Sequence of Kappa-type opioid receptor (P41144 whole entry): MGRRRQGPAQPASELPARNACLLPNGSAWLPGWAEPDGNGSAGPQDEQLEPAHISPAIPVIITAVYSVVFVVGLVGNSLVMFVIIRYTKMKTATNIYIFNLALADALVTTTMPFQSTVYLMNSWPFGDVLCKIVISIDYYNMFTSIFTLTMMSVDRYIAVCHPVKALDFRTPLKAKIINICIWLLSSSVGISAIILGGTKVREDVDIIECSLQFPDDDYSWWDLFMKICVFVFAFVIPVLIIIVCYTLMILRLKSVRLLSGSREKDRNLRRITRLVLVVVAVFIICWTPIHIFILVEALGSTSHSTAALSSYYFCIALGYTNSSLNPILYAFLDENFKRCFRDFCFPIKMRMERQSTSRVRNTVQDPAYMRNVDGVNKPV

Turning to `CC[C@H](C)[C@H](NC(=O)[C@H](CCCN=C(N)N)NC(=O)[C@H](CCCN=C(N)N)NC(=O)[C@H](CC(C)C)NC(=O)[C@H](Cc1ccccc1)NC(=O)[C@H](C)NC(=O)CNC(=O)[C@@H](N)Cc1ccc(O)cc1)C(=O)N[C@@H](CCCN=C(N)N)C(=O)N1CCC[C@H]1C(=O)N[C@@H](CCCCN)C(N)=O`, the IC50 entry in the test listed under Cavia porcellus [1] was “Not Active”; in the test filed under Cavia porcellus [2], 1.7 nM; in test [3], 1.1 nM; at Mu-type opioid receptor, 210 nM.

`CC[C@H](C)[C@H](NC(=O)[C@H](CCCNC(=N)N)NC(=O)[C@H](CCCNC(=N)N)NC(=O)[C@H](CC(C)C)NC(=O)[C@H](Cc1ccccc1)NC(=O)CNC(=O)CNC(=O)[C@@H](N)Cc1ccc(O)cc1)C(=O)N[C@@H](CCCNC(=N)N)C(=O)N1CCC[C@H]1C(=O)N[C@@H](CCCCN)C(N)=O`: the 50% inhibitory concentration (IC50) entry is “Not Active” in the test filed under Cavia porcellus [1] and 25.5 nM in test [4].

As to `CC[C@H](C)[C@H](NC(=O)[C@H](CCCN=C(N)N)NC(=O)[C@H](CCCN=C(N)N)NC(=O)[C@H](CC(C)C)NC(=O)[C@H](Cc1ccccc1)NC(=O)[C@@H](C)NC(=O)CNC(=O)[C@@H](N)Cc1ccc(O)cc1)C(=O)N[C@@H](CCCN=C(N)N)C(=O)N1CCC[C@H]1C(=O)N[C@@H](CCCCN)C(N)=O`, the IC50 entry in the test filed under Cavia porcellus [1] is “Not Active”; in the test listed under Cavia porcellus [2], 8.1 nM; in test [3], 0.76 nM; on Mu-type opioid receptor it was 260 nM.

By IC50 is commonly meant the point on the concentration scale where inhibition reaches its midpoint.
